# In paper PMC8929329, “The pharmaceutical excipient PEG400 affect the absorption of baicalein in Caco‐2 monolayer model by interacting with UDP‐glucuronosyltransferases and efflux transport proteins” (Pharmacology Research & Perspectives, 2022):
# Like-named read-outs stand apart in the source and are kept apart here.
# Assays:
# Stability study in HBSS = assay type: physicochemical; conditions: 37°C, 2 h
# Protocol: The test was carried out by measuring the content of B, BG, and B6G before and after keeping in the HBSS solution at 37°C for 2 h. The time interval was selected according to the permeation experiment. The differences between the contents of the three samples before or after the incubation were calculated and expressed as the percentage of B, BG, and B6G remaining.
# [1] = Permeation experiments on Caco-2 cell monolayer (two-way transport); assay type: in vitro ADME, human; conditions: human, read-out: corrected apparent permeability (Pcorrected); for Papp at 120 min, 5 μM: baicalein 5 μM; for Papp at 120 min, 15 μM: baicalein 15 μM
# Protocol: (§1) Cell culture was performed as previously described.[15] For transport experiments, Caco-2 cells from passage number 20-30 were seeded at a density of 2 × 10^5 cells per well on transwell plate (a solid insert for cell culture contains porous permeable polycarbonate membrane) with polycarbonate membranes using a blood-counting chamber (QIU JING®). A 0.5 ml of culture medium with cells was added to the apical side (AP) and 1.5 ml of blank culture medium was added to the basolateral side (BL). During the incubation period, the medium on the AP and BL sides were changed every 2 days in the first week, and every day after a week until the 21st day. The permeation of samples was assessed in both directions at different concentrations. This experiment assessed the influence of different concentrations (%, v/v) of PEG400 on the permeation process of B, BG, and […]. […] Caco-2 cell monolayers with qualified monolayer membrane integrity were used for drug permeability experiments. Aspirated and discarded the original culture medium in the transwell plate, added pre-warmed (37°C) HBSS to wash 3 times, put it in the incubator for the last time and incubated for 30 min. […] For the AP-BL permeability (absorptive transport study), add 0.5 ml of samples (dissolved in HBSS) to the apical side (AP) as a supply chamber, and add 1.5 ml of pre-warmed HBSS to the basolateral side (BL) as a receiving chamber. Alternatively, in the permeation direction of BL-AP compartment (secretive transport study), add 1.5 ml of samples (dissolved in HBSS) to the BL side as a supply chamber, and add 0.5 ml of pre-warmed HBSS to the AP side as a receiving chamber. After the above steps, put the transwell plate on the thermostatic oscillator (Changzhou Wanhe Instrument Manufacturing Co., Ltd.) at 60 r/min. And sample 100 μl from the receiving pool or 10 μl from the supply chamber at 30, 60, 90, and 120 min depending on the experiment, and make up the same volume of blank pre-warmed HBSS. The sample taken from the transwell plate was precipitated with the 100 μl of methanol to precipitate the protein. After centrifugation at 16 000g for 15 min at 4°C, 70 μl of the supernatant was taken. And the content was determined by UPLC-MS/MS method to calculate the apparent permeability coefficient (P app) and efflux ratio (ER). The P app and ER of Caco-2 monolayers was measured and calculated as Equations ((2), (3), (4)): (2) Papp=dQ/dt/AC0 Where ΔQ/Δt (ng/ml·s) is the rate of permeability (ng/ml·s for B, BG, […]); A is for the membrane area (1.12 cm^2); C 0 (ng/ml/for B, BG, […]) is the initial concentration of the sample in the supply chamber. The apparent permeability might need to be corrected because of the effect of the marked amount of baicalein glucuronide.[17] Thus, the corrected permeability was calculated from the total rate of drug transport and the glucuronide excretion rate of bidirectional side divided by the membrane area (A) of the monolayer and the initial concentration of baicalein at the loading side (C 0): (3) Pcorrected=dQ/dt+Aex+Bex/AC0 (4) […] - BL Where P appBL-AP is the apparent permeability coefficient when the sample is added on the basolateral side; […]-BL is the apparent permeability coefficient when the sample is added on the apical side.
# Caco-2 cell monolayer = test: as above; assay type: in vitro ADME, human
# Protocol: as §1
# UGT1A9 = test: Enzyme activity assay, intestinal microsome incubation: baicalein glucuronidation to BG; assay type: in vitro ADME, human; conditions: BG formation (UGT1A9)
# Protocol: (§2) In this experiment, the effect of PEG400 on the enzyme activities of UGT1A8 and UGT1A9 was evaluated by in vitro microsome incubation. The activity of UGT1A8 and UGT1A9 was determined by detecting the production of BG and B6G with B as substrate.
# (§3) The incubation system contained 10 µl of 50 mM Tris‐HCl (pH 7.4) buffer, 10 µl of 5 mM MgCl2 solution, 10 µl of 0.2 mg/ml alamethicin (Aladdin Biochemical Technology), and 20 µl of intestinal microsomes (Xenotech). The incubation system was pre‐incubated on ice for 15 min prior to experiment. Then, added 20 µl baicalein (dissolved in 50 mM Tris‐HCl) and PEG400 (20 µl) or 50 mM Tris‐HCl (20 µl) to the incubation system. The reaction was initiated by adding 5 mM UDPGA (10 µl) and incubated at 37°C for 15 min. The whole reaction was operated in a 1.5 ml centrifuge tube. Finally, the reaction was terminated by adding cold acetonitrile (100 µl) containing the genistein (IS). All solutions were thoroughly mixed for 3 min, then the mixture was centrifuged at 4°C at 16,000g for 15 min to precipitate the proteins completely. The supernatant was transferred and 10 µl was injected into the UPLC‐MS/MS system.
# (§4) Kinetics parameters were obtained by fitting the data with Michaelis‐Menten equation (Equation 5) using […] GraphPad Prism® 9. (5) v=Vmax×s/Km+s where v (nmol/min/mg) is the velocity of metabolite formation, V max (nmol/min/mg) is the maximum velocity, K m (µM) is the Michaelis constant defined as the substrate concentration at half of V max, [S] (µM) is the substrate concentration
# UGT1A8 = test: Enzyme activity assay, intestinal microsome incubation: baicalein glucuronidation to B6G; assay type: in vitro ADME, human
# Protocol: as §2, §3, §4
# [2] = B6G formation (UGT1A8), 0.25% PEG400
# [3] = B6G formation (UGT1A8), 0.5% PEG400
# [4] = B6G formation (UGT1A8), 1% PEG400
# [5] = B6G formation (UGT1A8), Control
compound,measurement,setting,value
"O=c1cc(-c2ccccc2)oc2cc(O)c(O)c(O)c12 [B, baicalein]",Stability (percentage remaining),Stability study in HBSS; 150 ng ml^−1,98.11 ± 3.85%
same,Stability (percentage remaining),Stability study in HBSS; 300 ng ml^−1,99.70 ± 5.23%
same,Stability (percentage remaining),Stability study in HBSS; 600 ng ml^−1,98.43 ± 7.23%
same,"Papp at 120 min, 10 μM","[1]; Caco-2, 10 μM B loaded on AP side, 0.25% 1% PEG400 group",99.7 ×10⁻⁶ cm/s
same,"Papp at 120 min, 10 μM","[1]; Caco-2, 10 μM B loaded on AP side, 0.25% PEG400 group",100 ×10⁻⁶ cm/s
same,"Papp at 120 min, 10 μM","[1]; Caco-2, 10 μM B loaded on AP side, 0.5% PEG400 group",94.7 ×10⁻⁶ cm/s
same,"Papp at 120 min, 5 μM","[1]; Caco-2, AP-BL",73.2 ×10⁻⁶ cm/s
same,"Papp at 120 min, 10 μM","[1]; Caco-2, AP-BL, baicalein 10 μM",78.4 ×10⁻⁶ cm/s
same,"Papp at 120 min, 15 μM","[1]; Caco-2, AP-BL",53.5 ×10⁻⁶ cm/s
same,"Papp at 120 min, 10 μM","[1]; Caco-2, BL-AP, 10 μM B, 0.25% PEG400 group",186 ×10⁻⁶ cm/s
same,"Papp at 120 min, 10 μM","[1]; Caco-2, BL-AP, 10 μM B, 0.5% PEG400 group",159 ×10⁻⁶ cm/s
same,"Papp at 120 min, 10 μM","[1]; Caco-2, BL-AP, 10 μM B, 1% PEG400 group",135 ×10⁻⁶ cm/s
same,"Papp at 120 min, 5 μM","[1]; Caco-2, BL-AP",120 ×10⁻⁶ cm/s
same,"Papp at 120 min, 10 μM","[1]; Caco-2, BL-AP, baicalein 10 μM",163 ×10⁻⁶ cm/s
same,"Papp at 120 min, 15 μM","[1]; Caco-2, BL-AP",105 ×10⁻⁶ cm/s
same,permeation within 2 h compared with the control group,"Caco-2 cell monolayer; AL-BL experiment, baicalein 10 μM loaded with 0.5% (v/v) PEG400",significantly decreased
same,penetration within 2 h compared with the control group,"Caco-2 cell monolayer; BL-AP experiment, baicalein 10 μM loaded with 0.5% (v/v) PEG",decreased significantly
same,K m,UGT1A9; 0.25% PEG400,14.34 ± 1.92 µM
same,K m,"UGT1A9; 0.25% PEG400, listed as baicalein",14.34 ± 1.92 µM
same,K m,UGT1A9; 0.5% PEG400,18.26 ± 3.61 µM
same,K m,UGT1A9; 1% PEG400,28.30 ± 3.33 µM
same,K m,"UGT1A9; 1% PEG400, listed as baicalein",28.30 ± 3.33 µM
same,K m,UGT1A9; Control,22.05 ± 3.74 µM
same,K m,UGT1A8; [2],28.44 ± 8.34 µM
same,V max,UGT1A8; [2],4.54 ± 0.40 nmol/min/mg protein
same,K m,"UGT1A8; B6G formation (UGT1A8), 0.25% PEG400, listed as baicalein",28.44 ± 8.34 µM
same,K m,UGT1A8; [3],38.86 ± 3.76 µM
same,V max,UGT1A8; [3],6.68 ± 0.29 nmol/min/mg protein
same,K m,UGT1A8; [4],194.73 ± 48.82 µM
same,V max,UGT1A8; [4],24.78 ± 4.67 nmol/min/mg protein
same,K m,"UGT1A8; B6G formation (UGT1A8), 1% PEG400, listed as baicalein",194.73 ± 48.82 µM
same,K m,UGT1A8; [5],43.33 ± 2.63 µM
same,V max,UGT1A8; [5],4.64 ± 0.11 nmol/min/mg protein
same,V max,"UGT1A8; UGT1A8, 0.25%PEG400",4.54 ± 0.4 nmol/min/mg
same,V max,"UGT1A8; UGT1A8, 0.5% PEG400",6.68 ± 0.29 nmol/min/mg
same,V max,"UGT1A8; UGT1A8, 1% PEG400",24.8 ± 4.67 nmol/min/mg
same,V max,"UGT1A8; UGT1A8, no PEG400",4.64 ± 0.11 nmol/min/mg
